We go through 29 molecules from patent US20220144812A1, “QUINOLINE DERIVATIVES AND THEIR USE FOR THE TREATMENT OF CANCER” (Epizyme, Inc., priority 2019, published 2022).

Some results are limits rather than exact numbers.

For experiment [1], the system named is H3K18Ac in HB-CLS-2 cells. The experiment can be described thus: H3K18AC in-cell western (ICW) assay. Type of experiment: cell-based. The conditions noted are these: H3K18Ac in-cell western; read-out: CREBBP ICW IC50. Summed up:
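HB-CLS-2 cells seeded 16–24 hours before 2 hr compound treatment at 37° C, 5% CO2, then methanol-fixed. H3K18Ac detected with rabbit monoclonal primary (overnight, 4° C) and 800CW anti-rabbit secondary; DRAQ5 stained DNA. Plates imaged at 700 and 800 nm for integrated intensity; IC50 in μM.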

Experiment [2] deals with T1, CREBBP (1084-1701) (Homo sapiens, UniProt Q92793).
T1 construct: measured in the following biochemical assay using CREBBP (1084-1701); purchased
Kind of experiment: Biochemical assay for CREBBP (1084-1701), SAMDI. The conditions noted are these: SAMDI, read-out: CREBBP Biochemistry IC50. Summed up:
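CREBBP (1084-1701) preincubated with compound 30 min at RT, then substrate mix (biotin-H3 11-25 K14R/K23R peptide, acetyl-CoA) added for 30 min at RT. Reaction stopped with formic acid, neutralised with sodium bicarbonate. Peptide acetylation read by SAMDI mass spectrometry to derive IC50.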

Experiment [3] addresses T2, EP300 (P300(1048-1664)) (Homo sapiens, UniProt Q09472).
T2 construct: P300(1048-1664)
T2 sequence (Q09472 1048-1664): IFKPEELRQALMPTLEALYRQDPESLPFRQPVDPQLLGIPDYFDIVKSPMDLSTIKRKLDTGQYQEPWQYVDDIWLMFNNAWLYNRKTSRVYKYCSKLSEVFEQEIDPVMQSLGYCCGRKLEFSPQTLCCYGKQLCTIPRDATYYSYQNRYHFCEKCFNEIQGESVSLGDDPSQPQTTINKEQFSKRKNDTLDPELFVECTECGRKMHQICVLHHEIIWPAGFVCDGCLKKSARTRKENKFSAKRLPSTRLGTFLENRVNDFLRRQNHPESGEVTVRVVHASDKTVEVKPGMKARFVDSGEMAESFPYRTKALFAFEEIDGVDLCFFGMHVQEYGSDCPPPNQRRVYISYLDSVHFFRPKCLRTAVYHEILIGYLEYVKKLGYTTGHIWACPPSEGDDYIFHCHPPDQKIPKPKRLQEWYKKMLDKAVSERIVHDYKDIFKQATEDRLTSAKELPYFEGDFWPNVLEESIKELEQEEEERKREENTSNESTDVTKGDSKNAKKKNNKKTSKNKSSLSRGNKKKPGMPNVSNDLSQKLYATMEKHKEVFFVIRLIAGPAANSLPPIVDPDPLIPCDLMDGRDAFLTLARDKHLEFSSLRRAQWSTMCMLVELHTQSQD
Kind of experiment: Biochemical assay for EP300, SAMDI. The note with it: EP300, SAMDI; read-out: EP300 Biochemistry IC50. From the text: The following example describes materials and methods relating to a biochemical assay for EP300. IC50 values (micromolar (μM)) are summarized in Table 1, Table 2, and Table 3 under the column labeled: “EP300 Biochemistry IC50 (micromolar).”

For experiment [4], the system named is 647V cells. Kind of experiment: High throughput proliferation (HTP) assay. Type of experiment: cell-based. The conditions noted are these: Homo sapiens, 647-V, high throughput proliferation; read-out: CREBBP HTP IC50. Summed up:
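Exponentially growing 647V cells in DMEM with 15% FBS were treated in triplicate with increasing compound concentrations at 37° C, 5% CO2. Viable cell number was read by CellTiter-Glo luminescence on day 7; IC50 in micromolar.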

T1 sequence (Q92793 1084-1701): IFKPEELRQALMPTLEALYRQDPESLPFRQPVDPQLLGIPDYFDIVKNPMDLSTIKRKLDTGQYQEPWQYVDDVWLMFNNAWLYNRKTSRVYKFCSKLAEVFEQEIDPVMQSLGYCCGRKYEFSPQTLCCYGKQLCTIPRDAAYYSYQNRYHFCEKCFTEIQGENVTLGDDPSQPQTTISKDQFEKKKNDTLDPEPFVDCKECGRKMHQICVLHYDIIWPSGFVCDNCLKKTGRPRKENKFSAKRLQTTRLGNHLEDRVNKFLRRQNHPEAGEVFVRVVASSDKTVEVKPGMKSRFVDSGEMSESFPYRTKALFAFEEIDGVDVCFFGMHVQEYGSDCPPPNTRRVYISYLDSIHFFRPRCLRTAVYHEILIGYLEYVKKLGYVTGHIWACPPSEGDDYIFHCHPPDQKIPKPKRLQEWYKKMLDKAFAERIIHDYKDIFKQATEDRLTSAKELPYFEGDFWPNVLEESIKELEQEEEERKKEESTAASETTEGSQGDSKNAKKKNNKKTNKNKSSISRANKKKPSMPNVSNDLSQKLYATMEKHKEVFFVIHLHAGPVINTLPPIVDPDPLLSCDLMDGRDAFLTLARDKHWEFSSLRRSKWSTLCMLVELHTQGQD

The IC50 is the concentration that inhibits the measured activity by half. In the case of `CCn1ncc(CN(C)C(=O)c2nc(-c3cc4[nH]ncc4nc3C)nc3ccc(Cl)cc23)c1C` [Compound 528], the IC50 was determined as 603 nM in experiment [1], 1060 nM in experiment [2], 1050 nM in experiment [3] and 1110 nM in experiment [4].

`CCn1ncc(CN(C)C(=O)c2cc(-c3ccc(NCCNS(C)(=O)=O)c(C)n3)nc3ccc(Cl)cc23)c1C` [Compound 529]: the concentration for half-maximal inhibition (IC50) worked out at 137 nM in experiment [1], 20.7 nM in experiment [2], 10.4 nM in experiment [3] and 238 nM in experiment [4].

With `CCn1ncc(CN(C)C(=O)c2cc(-c3cc4[nH]cnc4c(C)n3)nc3ccc(COC)cc23)c1C` [Compound 530], the IC50 stood at 154 nM in experiment [1], 50.3 nM in experiment [2], 12.5 nM in experiment [3] and 248 nM in experiment [4].

`CCn1ncc(CN(C)C(=O)c2cc(-c3cc(N[C@@H]4CCNC4)cc(C)n3)nc3ccc(Cl)cc23)c1C` [Compound 531]: the IC50 in experiment [1] came out at 350 nM; in experiment [2], 29.9 nM; in experiment [3], 6.3 nM; in experiment [4], 88.9 nM.

With `CCn1ncc(CN(C)C(=O)c2nc(-c3ccc4n[nH]c(N)c4c3)nc3ccc(Cl)cc23)c1C` [Compound 532], the IC50 in experiment [1] is 158 nM; in experiment [2] it was 17.3 nM; in experiment [3], 15.4 nM; in experiment [4] it was 288 nM.

`CCn1ncc(C(C)N(C)C(=O)c2cc(-c3ccc(NCCNC)c(C)n3)nc3ccc(Cl)cc23)c1C` (centres unmarked) [Compound 533]: the IC50 in experiment [1] was 159 nM; in experiment [2], 183 nM; in experiment [3], 32.4 nM; in experiment [4], 79.6 nM.

Take `CCn1ncc(CN(C)C(=O)c2cc(-c3ccc(NCC(F)(F)CNC)c(C)n3)nc3ccc(Cl)cc23)c1C` [Compound 534]: the concentration for half-maximal inhibition (IC50) in experiment [1] was 171 nM; in experiment [2], 32.4 nM; in experiment [3], 9.1 nM; in experiment [4] it was 228 nM.

In the case of `CCn1ncc(CN(C)C(=O)c2nc(-c3cc4c(N)n[nH]c4cc3C)nc3ccc(Br)cc23)c1C` [Compound 535], the half-inhibitory concentration (IC50) in experiment [1] is 58.3 nM; in experiment [2] it was 12 nM; in experiment [3], 4.1 nM; in experiment [4] it was 58.1 nM.

In the case of `CCn1ncc(CN(C)C(=O)c2cc(-c3ccc(NC4CNCC4(F)F)c(C)n3)nc3ccc(Cl)cc23)c1C` (centres unmarked) [Compound 538], the IC50 in experiment [1] is 1060 nM; in experiment [2] it was 88.7 nM; in experiment [3], 88.6 nM; in experiment [4], 1730 nM.

Regarding `CCn1ncc(CN(C)C(=O)c2nc(-c3cc(C)cc(NC4CNC(=O)C4)c3)nc3ccc(Cl)cc23)c1C` (centres unmarked) [Compound 539], the half-maximal inhibitory concentration (IC50) in experiment [1] stood at 714 nM; in experiment [2], 30.4 nM; in experiment [3] it was 26.2 nM; in experiment [4], 1340 nM.

Regarding `CNCCNc1ccc(-c2cc(C(=O)N(C)Cc3cnc(C4CC4)n3C)c3cc(Cl)ccc3n2)nc1C` [Compound 540], the IC50 came out at 82.8 nM in experiment [1], 20.5 nM in experiment [2], 6.1 nM in experiment [3] and 23.3 nM in experiment [4].

Turning to `CCc1ncc(CN(C)C(=O)c2cc(-c3cc(-c4ncc[nH]4)n(C)n3)nc3ccc(Cl)cc23)n1C` [Compound 541], the IC50 in experiment [1] is 104 nM; in experiment [2], 11.2 nM; in experiment [3], 2.7 nM; in experiment [4] it was 85.4 nM.

In the case of `CCn1ncc(CN(C)C(=O)c2cc(-c3cc(-c4ncc[nH]4)n(C)n3)nc3ccc(Cl)cc23)c1C` [Compound 542], the 50% inhibitory concentration (IC50) was 53.5 nM in experiment [1], 6.92 nM in experiment [2], 2.4 nM in experiment [3] and 56.6 nM in experiment [4].

On to `CNCCNc1ccc(-c2cc(C(=O)N(C)Cc3cncn3C)c3cc(Cl)ccc3n2)nc1C` [Compound 543], for which the half-inhibitory concentration (IC50) was determined as 6820 nM in experiment [1], 8540 nM in experiment [2], 8960 nM in experiment [3] and 2260 nM in experiment [4].

Turning to `CNCCNc1ccc(-c2cc(C(=O)N(C)Cc3cnc(C(C)C)n3C)c3cc(Cl)ccc3n2)nc1C` [Compound 544], the half-inhibitory concentration (IC50) in experiment [1] is 124 nM; in experiment [2], 14.6 nM; in experiment [3], 6 nM; in experiment [4], 42.5 nM.

For `CCc1ncc(CN(C)C(=O)c2nc(-c3cc(N)c4c[nH]nc4c3)nc3ccc(Cl)cc23)n1C` [Compound 546], the half-inhibitory concentration (IC50) in experiment [1] is 113 nM; in experiment [2] it was 13.7 nM; in experiment [3], 33.7 nM; in experiment [4] it was 96.4 nM.

Take `CCn1ncc(CN(C)C(=O)c2cc(-c3cc(NC4CNC4)cc(C)n3)nc3ccc(Cl)cc23)c1C` [Compound 547]: the IC50 in experiment [1] amounted to 550 nM; in experiment [2], 23.8 nM; in experiment [3], 12.5 nM; in experiment [4], 105 nM.

With `CCc1onc(CN(C)C(=O)c2cc(-c3ccc(NCCNC)c(C)n3)nc3ccc(Cl)cc23)c1C` [Compound 548], the IC50 in experiment [1] stood at 2150 nM; in experiment [2], 2020 nM; in experiment [3], 2160 nM; in experiment [4], 1860 nM.

As for `CCc1ncc(CN(C)C(=O)c2cc(-c3ccc(NC4CN(C(C)=O)C4)c(C)n3)nc3ccc(Cl)cc23)n1C` [Compound 549], the IC50 came out at 240 nM in experiment [1], 34.9 nM in experiment [2], 12.4 nM in experiment [3] and 150 nM in experiment [4].

For `CCn1ncc(CN(C)C(=O)c2cc(-c3cc(-c4ncc[nH]4)n(C)n3)nc3ccc(COC)cc23)c1C` [Compound 550], the IC50 worked out at 128 nM in experiment [1], 32.2 nM in experiment [2], 14.1 nM in experiment [3] and 247 nM in experiment [4].

As for `CCn1ncc(CN(C)C(=O)c2nc(-c3cc(NC)c4cn[nH]c4c3)nc3ccc(Cl)cc23)c1C` [Compound 551], the IC50 was determined as 153 nM in experiment [1], 27 nM in experiment [2], 137 nM in experiment [3] and 233 nM in experiment [4].

With `CCn1ncc(CN(C)C(=O)c2nc(-c3cc(C)nc(N[C@@H]4CCNC4)c3)nc3ccc(Cl)cc23)c1C` [Compound 552], the IC50 in experiment [1] was 49.7 nM; in experiment [2], 13.4 nM; in experiment [3] it was 6.3 nM; in experiment [4] it was 72.2 nM.

Regarding `CCn1ncc(CN(C)C(=O)c2cc(-c3ccc(NCCNC)c(C)n3)nc3ccc(Cl)cc23)c1C1CC1` [Compound 553], the half-maximal inhibitory concentration (IC50) was found to be 466 nM in experiment [1], 52.5 nM in experiment [2], 535 nM in experiment [3] and 763 nM in experiment [4].

For `CCn1ncc(CN(C)C(=O)c2nc(-c3cc(C)cc(NC4CNCC4(F)F)c3)nc3ccc(Cl)cc23)c1C` (centres unmarked) [Compound 554], the half-inhibitory concentration (IC50) in experiment [1] came out at 1070 nM; in experiment [2], 53.5 nM; in experiment [3], 173 nM; in experiment [4] it was 1670 nM.

Take `CCc1ncc(CN(C)C(=O)c2nc(-c3cc(Cl)cc(NCCNC)c3)nc3ccc(Cl)cc23)n1C` [Compound 555]: the IC50 in experiment [1] was determined as 226 nM; in experiment [2] it was 22.8 nM; in experiment [3] it was 7.1 nM; in experiment [4], 102 nM.

As to `CCn1ncc(CN(C)C(=O)c2cc(-c3nn(C)c(C(=O)NC)c3C)nc3ccc(Cl)cc23)c1C` [Compound 556], the 50% inhibitory concentration (IC50) is 20000 nM in experiment [1], no less than 50000 nM in experiment [2], no less than 50000 nM in experiment [3] and 6290 nM in experiment [4].

Turning to `CCn1nc(C)c(CN(C)C(=O)c2cc(-c3ccc(NCCNC)c(C)n3)nc3ccc(Cl)cc23)c1C` [Compound 557], the half-maximal inhibitory concentration (IC50) is 18400 nM in experiment [1], 14100 nM in experiment [2], 5200 nM in experiment [3] and 6800 nM in experiment [4].

`CCn1ncc(CN(C)C(=O)c2nc(-c3ccc4n[nH]c(NC)c4c3)nc3ccc(Cl)cc23)c1C` [Compound 558]: the half-inhibitory concentration (IC50) came to 39.3 nM in experiment [1], 4.27 nM in experiment [2], 1.5 nM in experiment [3] and 76.3 nM in experiment [4].

For the molecule `CCn1ncc(CN(C)C(=O)c2cc(-c3ccc(NCCNC)c(C)n3)nc3ccc(Cl)cc23)c1COC` [Compound 559], the IC50 in experiment [1] was 838 nM; in experiment [2] it was 593 nM; in experiment [3] it was 2050 nM; in experiment [4], 1240 nM.
